Test results taken from patent US6372787B1 (dated 2002).

CON=C(C(C)=NN=Cc1ccccc1C(=NOC)C(=O)OC)c1ccc(Cl)cc1
melting point: 118 to 119 °C
